Consider 85 compounds from a melting point compilation (Tetko et al.; mined from patent text by program, amines drawn as free bases though some values may be those of a salt).

`O=C(Nc1ccnnc1)Nc1cc(F)cc(F)c1` gave a melting point of 272 to 273 °C.
For `CCOC(=O)c1c(C)cc(OCc2cccc(OCc3ccc4ccccc4n3)c2)cc1O`, the melting point lay within 127 to 128 °C.
Under `CCOC(=O)Cc1cc(Cl)cc(C(=O)c2ccccc2)c1N` stands 80 to 82 °C; under `Cn1c(=O)cc(-c2cccc(Cl)c2)c2cc(C(N)(c3ccc(Cl)cc3)c3cnccc3Cl)ccc21` (stereo not given), 180 °C; under `COc1cccc(C=C2NC(=O)NC2=O)c1`, 229 to 231 °C.
As for `COc1ccc(CCc2ccc3ccc(C(=O)NCC(O)c4ccccc4)c(O)c3n2)cc1` (stereo not given), the melting point was in the range of 69 to 72 °C.
On to `COc1cc2c(c3c1OC(C)(C)C3)C(c1cccc(-c3ccc(NC=O)cc3)c1)=NC(C)(C)C2`, for which the melting point fell in the range of 129 to 133 °C.
`COc1cc(C(=O)NNC(=O)c2occ(-c3ccccc3)c2-c2ccccc2)ccc1OCc1ccccc1` yielded a melting point of 203 to 204 °C.
`O=C(CCCN1CCC(NC(=O)c2ccccc2)CC1)c1ccccc1` gave a melting point of 143 to 144 °C.
For `BrCC1(CBr)COC(c2ccccc2)OC1`, the melting point was found to be 66 °C.
The compound `CCn1nc(C)c([N+](=O)[O-])c1C(N)=O` registered a melting point of 175 to 177 °C.
For the compound `Cc1nccc2c1[nH]c1cc(OCc3ccccc3)ccc12`, the melting point came out at 212 °C.
As for `CCCCOCCOc1ccc(-c2cc3c4c(c2)CCN4CCCC(C(=O)O)=C3)cc1`, the melting point lay within 217 to 218 °C.
Regarding `COc1ccc(Br)cc1CN1CCC(=O)C(C(c2ccc(F)cc2)c2ccc(F)cc2)C1` (stereo not given), the melting point lay in the range of 129 to 130 °C.
`COCOc1cc(/C=C/C(=O)/C=C/c2cc(OCOC)cc(OCOC)c2)cc(OCOC)c1` showed a melting point of 90 to 92 °C.
Consider `Cc1ccc(C(C)CC(=O)NC(C)c2ccc(NS(C)(=O)=O)c(F)c2)cc1C` (stereo not given), for which the melting point fell in the range of 152 to 154 °C.
The figure for `CCOCc1nc2c(N)nc3ccccc3c2n1CCC(=O)N1CCOCC1` is 187 to 189 °C; for `Nc1nc(=O)n(CCCCI)cc1F` it is 181 to 184 °C; for `CSCOC1CCC2C3CCC4=CC(=O)C=CC4(C)C3(F)C(O)CC12C` (stereo not given) it is 224 to 225 °C.
`CCc1cn(-c2ncccn2)c2c1C(=O)CC(C)(C)C2` displayed a melting point of 111 to 114 °C.
The compound `Nc1ccccc1S(=O)c1nc2cc(Cl)ccc2[nH]1` (stereo not given) displayed a melting point of 176 to 178 °C.
The figure for `CN(C)C=Cc1ncc([N+](=O)[O-])n1CCOC(=O)c1ccccc1` is 153 to 154 °C; for `CCCC(OCCc1ccc(-c2ccc(Cl)cc2)cc1)C(=O)O` (stereo not given) it is 89 to 90 °C.
For the compound `Oc1ccc2oc(-c3ccc(O)c(Cl)c3)nc2c1`, the melting point fell in the range of 254 to 256 °C.
`Nc1cc(-c2ccccc2)c(S(N)(=O)=O)cc1S(N)(=O)=O` had a melting point of 197 to 198 °C.
Compound `Cc1cc(C(=O)N2Cc3ccc(C(=O)N(CCO)CCO)n3Cc3ccccc32)ccc1-c1ccccc1C(F)(F)F` came in with a melting point of 127 to 130 °C.
For the compound `CCOC(=Nc1nc(C)cc(OC)n1)NS(=O)(=O)c1ccccc1OC(F)F`, the melting point lay in the range of 131 to 133 °C.
With `CC(=O)OC1CSC(Oc2cnccc2C)C(OC(C)=O)C1OC(C)=O` (stereo not given), the melting point was found to be 150 °C.
Consider `COC(=O)c1nsc2nc3ccccc3n12`, for which the melting point was in the range of 208 to 209 °C.
The figure for `CCOC(=O)C1=C(N)NC2=C(C(=O)CCC2)C1c1cc(OC)c(OC)cc1[N+](=O)[O-]` (stereo not given) is 261 °C; for `CC1(C)CON(Cc2ccc(NC(=O)Cc3ccccc3C(=O)O)cc2)C1=O` it is 164 to 166 °C.
`COc1ccc(/C=C/c2ccncc2)c2c1OC(C)(C)C2` showed a melting point of 110 to 113 °C.
The figure for `N#Cc1cc(Sc2ccc(Cl)c(Cl)c2)ccc1[N+](=O)[O-]` is 136 to 138 °C; for `COc1cc(C(=O)Cc2nnnn2C)c(N)cc1Cl` it is 178 to 181 °C.
For the compound `Nc1ncc(-c2ccc(=O)[nH]n2)c(-c2ccco2)n1`, the melting point was 262 to 268 °C.
The figure for `CSCc1c(N)c([N+](=O)[O-])cc(F)c1F` is 110 to 112 °C; for `CN(C)CCOc1ccc2cc3ncc(C#N)c(Nc4ccc(Cl)cc4Cl)c3cc2c1` it is 115 to 117 °C.
Compound `C[Si](C)(CC[Si](C)(C)c1ccc(C(F)(F)F)cc1)c1ccc(C(F)(F)F)cc1` showed a melting point of 58 to 59 °C.
The figure for `CON=C1CN(c2c(F)c(N)c3c(=O)c(C(=O)O)cn(C4CC4)c3c2F)CC12CN(C)C2` is 220 to 222 °C.
`Cc1cc2cc(CN3CCCC3)cnc2cc1NC(=O)c1ccc(-c2ccccc2)cc1F`: the melting point is 180 to 183 °C.
`CCCCn1c(=O)c2c(Cl)cc(Cl)cc2n(Cc2ccccc2)c1=O` displayed a melting point of 101 to 109 °C.
The figure for `CCCCCCc1ccc(-c2ccc(OC(=O)C3(C#N)CCCC(C)C3)cc2)cc1` (stereo not given) is 51 °C; for `Cn1c(C(F)(F)F)cc(=O)n(-c2cc(OC(=O)CCC(=O)OCCCl)c(Cl)cc2F)c1=O` it is 94 to 96 °C.
Under `CCc1cccc(CC)c1N1C(=S)N(C)C(O)C1O` (stereo not given) stands 87 to 90 °C.
As to `COc1ccc(S(=O)(=O)N2C(=O)C(O[Si](C)(C)C)(c3ccccc3OC)c3cc(Cl)c(C)cc32)c(OC)c1` (stereo not given), the melting point fell in the range of 190 to 191 °C.
Compound `CCCCCCCCCCCCCCCCCCOC(=O)Nc1ccc(NC(=O)NS(=O)(=O)c2ccc3ccccc3c2)cc1` yielded a melting point of 178 °C.
Regarding `COc1cc(C(O)CCCCCCCCCCOCc2ccccc2)ccc1OCc1ccccc1` (stereo not given), the melting point was 43 to 45 °C.
`CCOC(C)O[C@@H](C(=O)OC(=O)[C@H](OC(C)OCC)[C@@H](NC(=O)OC(C)(C)C)c1ccccc1)[C@@H](NC(=O)OC(C)(C)C)c1ccccc1` (stereo not given in full) had a melting point of 43 °C.
`CCOC(=O)C(=CNc1ccnn1CC)C(=O)OCC` showed a melting point of 50 to 53 °C.
The figure for `O=C(Nc1ccccc1C(=O)c1ccc(OC(F)(F)F)cc1)c1ccncc1` is 112 to 114 °C; for `CC1(C)CC(O)CC(C)(C)N1CC(O)CN1C(C)(C)CC(O)CC1(C)C` it is 186 to 190 °C; for `CCOC(=O)C1=C(COCCNC2=NCCS2)NC(C)=C(C(=O)OC)C1c1ccccc1Cl` (stereo not given) it is 145 to 147 °C.
`O=C([C@@H]1CCCN1S(=O)(=O)c1ccc2ccccc2c1)N1C[C@H](c2ccc(Cl)cc2)Sc2ccc3ccccc3c21`: the melting point lay in the range of 204 to 205 °C.
The compound `O=[N+]([O-])C(F)(CO)CO` yielded a melting point of 86 to 87 °C.
On to `CCCN(Cc1ccc(-c2ccccc2-c2nnn[nH]2)cc1)c1nc(OCc2ccccc2)ccc1C(=O)O`, for which the melting point is 68 to 82 °C.
The compound `COC(=O)c1cccc(Cc2ccc3[nH]c(-c4ccc5c(c4)OCO5)nc3c2)c1` came in with a melting point of 122 to 124 °C.
As to `Nc1ccccc1-c1nnc(-c2ccc(C(=O)O)cc2)o1`, the melting point was above 300 °C.
On to `Cc1cccc(-c2c3c(cc4ccc5c(c24)OCO5)C(=O)NC3)c1`, for which the melting point was 244 to 246 °C.
The figure for `Cc1nc(-c2sc(-c3ccc(Cl)cc3)nc2C)sc1C(=O)N[C@H](C)[C@](O)(Cn1cncn1)c1ccc(F)cc1F` is 110 to 114 °C; for `Cc1c(C)c2c(c(C)c1N)CC(C)(CN1CCC(CCCc3ccccc3)CC1)O2` (stereo not given) it is 79 to 80 °C.
The compound `COc1ccc2[nH]c3c(C)cnc(Cl)c3c2c1` gave a melting point of 243 to 245 °C.
In the case of `CCCCCCn1nc(-c2ccc(C(F)(F)F)cc2)cc1CCC(=O)c1ccc(OCC(=O)O)c(C)c1`, the melting point was in the range of 118 to 123 °C.
As for `CCCC(=O)c1cnc2c(OC)cccc2c1Nc1ccsc1CC`, the melting point lay in the range of 119 to 121 °C.
In turn, `Cc1nc2ncnn2c2c1CCN2Cc1ccccc1` registered a melting point of 170 to 172 °C.
As to `Cc1cc(-c2nc(C(F)(F)F)cn2-c2ccc(S(C)(=O)=O)c(F)c2)ccc1-c1cscn1`, the melting point lay in the range of 197 to 198 °C.
Turning to `Cc1nn(-c2c(Cl)cc(S(=O)(=O)C(F)(F)F)cc2Cl)nc1-c1nc(C#N)c(C#N)[nH]1`, the melting point was 244 to 245 °C.
As for `CC(=O)c1cc(C)c(OCC(=O)O)c(C)c1`, the melting point fell in the range of 166 to 167 °C.
Under `COc1cc(OC)cc(Oc2ccc(C(=O)N(C(C)C)C3CCCCC3)cc2)c1` stands 140 °C.
The compound `CN1CCC2(C)c3cc(OC(=O)OC(C)(C)C)cc(Br)c3N(C)C12` (stereo not given) came in with a melting point of 146 to 148 °C.
The figure for `CCC(NC(=O)c1ccc(Cl)cc1)NC(=NC#N)Nc1cccnc1` (stereo not given) is 181 to 183 °C; for `CCC(CC)Nc1c([N+](=O)[O-])cc(C)c(C=CN(C)C)c1[N+](=O)[O-]` it is 100 to 102 °C.
Under `CCCC(=O)Oc1cc(C(C)C)ccc1C1(OC(=O)CCC)C(=O)c2ccccc2C1=O` stands 98 to 102 °C; under `NS(=O)(=O)c1nc2ccc(OCC3CO3)cc2s1` (stereo not given), 149 to 152 °C; under `CN(Cc1ccc(COOC(=O)NC(Cc2ccccc2)C(=O)O)cc1)c1ccccc1` (stereo not given), 69.6 to 70.1 °C.
Compound `C=C1CCc2sccc2C1=O` came in with a melting point of 47 to 49 °C.
The figure for `Cc1cnc2c(=O)[nH]c3ccc(Cl)cc3n12` is above 300 °C.
Under `CC(=C(c1ccccc1)c1ccccc1)P(C1CCCCC1)C1CCCCC1` stands 128 to 130 °C; under `COC(=O)Nc1cc(Oc2ccc3c(C(=O)Nc4cccc(C(F)(F)F)c4)cccc3c2)ccn1`, 230 to 232 °C.
`CC(C)Oc1cccc(N2CC(=O)NC(=O)N2)c1` yielded a melting point of 170 to 172 °C.
`Cc1cc(-c2sc(N3CCN(Cc4ccc(C(F)(F)F)cc4)C3=O)nc2C)n[nH]1` yielded a melting point of 238 to 239 °C.
On to `CS(=O)(=O)c1ccc(-c2nn3c(c2-c2ccc(F)cc2)OCCC3)cc1`, for which the melting point lay within 198 to 200 °C.
In the case of `Cc1noc(NS(=O)(=O)c2c(C)sc3ccccc23)c1C`, the melting point was in the range of 174 to 176 °C.
Under `COc1ccc(CN(CCN(C)CCCCCCNC(=O)NCCSCc2csc(NC(=N)N)n2)c2ccccn2)cc1` stands 60 °C; under `COc1ccc(SCCCCN2C(=O)c3ccccc3C2=O)cc1`, 61 to 62 °C; under `ON=c1cc(-c2cc3sccc3cn2)oc2ccc(OCCc3ccc(F)cc3)cc12`, 228 to 234 °C.
